Activity calls are given as the source filed them. The rule behind the calls is not given here.
Test system: CCRIS mutagenicity, Ames/micronucleus/aberration tests
Test: CCRIS mutagenicity studies
[1] = Test System: AMES SALMONELLA TYPHIMURIUM, Strain/Indicator: TA97, Metabolic Activation: NONE, Method: PREINCUBATION
[2] = Test System: AMES SALMONELLA TYPHIMURIUM, Strain/Indicator: TA98, Metabolic Activation: NONE, Method: PREINCUBATION
[3] = Test System: AMES SALMONELLA TYPHIMURIUM, Strain/Indicator: TA100, Metabolic Activation: NONE, Method: PREINCUBATION
[4] = Test System: AMES SALMONELLA TYPHIMURIUM, Strain/Indicator: TA1535, Metabolic Activation: NONE, Method: PREINCUBATION
[5] = Test System: AMES SALMONELLA TYPHIMURIUM, Strain/Indicator: TA1537, Metabolic Activation: NONE, Method: PREINCUBATION
[6] = Test System: AMES SALMONELLA TYPHIMURIUM, Strain/Indicator: TA98, Metabolic Activation: NONE, Method: STANDARD PLATE
[7] = Test System: AMES SALMONELLA TYPHIMURIUM, Strain/Indicator: TA100, Metabolic Activation: NONE, Method: STANDARD PLATE
[8] = Test System: AMES SALMONELLA TYPHIMURIUM, Strain/Indicator: TA100, Metabolic Activation: RAT, LIVER, S-9, AROCLOR 1254, Method: STANDARD PLATE
[9] = Test System: AMES SALMONELLA TYPHIMURIUM, Strain/Indicator: TA1535, Metabolic Activation: NONE, Method: STANDARD PLATE
[10] = Test System: AMES SALMONELLA TYPHIMURIUM, Strain/Indicator: TA100, Metabolic Activation: S-9, Method: STANDARD PLATE

Structure (SMILES): C=CC(C)C#N (stereo not drawn)
- mutagenic call (Test System: AMES SALMONELLA TYPHIMURIUM, Strain/Indicator: TA97, Metabolic Activation: HAMSTER, LIVER, S-9, AROCLOR 1254 (5 OR 30%), Method: PREINCUBATION): inactive; negative
- mutagenic call (Test System: AMES SALMONELLA TYPHIMURIUM, Strain/Indicator: TA97, Metabolic Activation: HAMSTER, LIVER, S-9, AROCLOR 1254 (10%), Method: PREINCUBATION): inactive; negative
- mutagenic call [1]: inactive; negative
- mutagenic call (Test System: AMES SALMONELLA TYPHIMURIUM, Strain/Indicator: TA97, Metabolic Activation: RAT, LIVER, S-9, AROCLOR 1254 (10%), Method: PREINCUBATION): inactive; negative
- mutagenic call (Test System: AMES SALMONELLA TYPHIMURIUM, Strain/Indicator: TA97, Metabolic Activation: RAT, LIVER, S-9, AROCLOR 1254 (30%), Method: PREINCUBATION): inactive; negative
- mutagenic call (Test System: AMES SALMONELLA TYPHIMURIUM, Strain/Indicator: TA98, Metabolic Activation: HAMSTER, LIVER, S-9, AROCLOR 1254 (10%), Method: PREINCUBATION): inactive; negative
- mutagenic call (Test System: AMES SALMONELLA TYPHIMURIUM, Strain/Indicator: TA98, Metabolic Activation: HAMSTER, LIVER, S-9, AROCLOR 1254 (30%), Method: PREINCUBATION): inactive; negative
- mutagenic call [2]: inactive; negative
- mutagenic call (Test System: AMES SALMONELLA TYPHIMURIUM, Strain/Indicator: TA98, Metabolic Activation: RAT, LIVER, S-9, AROCLOR 1254 (10%), Method: PREINCUBATION): inactive; negative
- mutagenic call (Test System: AMES SALMONELLA TYPHIMURIUM, Strain/Indicator: TA98, Metabolic Activation: RAT, LIVER, S-9, AROCLOR 1254 (30%), Method: PREINCUBATION): inactive; negative
- mutagenic call (Test System: AMES SALMONELLA TYPHIMURIUM, Strain/Indicator: TA100, Metabolic Activation: HAMSTER, LIVER, S-9, AROCLOR 1254 (10%), Method: PREINCUBATION): inactive; negative
- mutagenic call (Test System: AMES SALMONELLA TYPHIMURIUM, Strain/Indicator: TA100, Metabolic Activation: HAMSTER, LIVER, S-9, AROCLOR 1254 (30%), Method: PREINCUBATION): inactive; negative
- mutagenic call [3]: inactive; negative
- mutagenic call (Test System: AMES SALMONELLA TYPHIMURIUM, Strain/Indicator: TA100, Metabolic Activation: RAT, LIVER, S-9, AROCLOR 1254 (10%), Method: PREINCUBATION): inactive; negative
- mutagenic call (Test System: AMES SALMONELLA TYPHIMURIUM, Strain/Indicator: TA100, Metabolic Activation: RAT, LIVER, S-9, AROCLOR 1254 (30%), Method: PREINCUBATION): inactive; negative
- mutagenic call (Test System: AMES SALMONELLA TYPHIMURIUM, Strain/Indicator: TA1535, Metabolic Activation: HAMSTER, LIVER, S-9, AROCLOR 1254 (10%), Method: PREINCUBATION): inactive; negative
- mutagenic call (Test System: AMES SALMONELLA TYPHIMURIUM, Strain/Indicator: TA1535, Metabolic Activation: HAMSTER, LIVER, S-9, AROCLOR 1254 (30%), Method: PREINCUBATION): inactive; negative
- mutagenic call [4]: inactive; negative
- mutagenic call (Test System: AMES SALMONELLA TYPHIMURIUM, Strain/Indicator: TA1535, Metabolic Activation: RAT, LIVER, S-9, AROCLOR 1254 (10%), Method: PREINCUBATION): inactive; negative
- mutagenic call (Test System: AMES SALMONELLA TYPHIMURIUM, Strain/Indicator: TA1535, Metabolic Activation: RAT, LIVER, S-9, AROCLOR 1254 (30%), Method: PREINCUBATION): inactive; negative
- mutagenic call (Test System: AMES SALMONELLA TYPHIMURIUM, Strain/Indicator: TA1537, Metabolic Activation: HAMSTER, LIVER, S-9, AROCLOR 1254 (30%), Method: PREINCUBATION): inactive; negative
- mutagenic call [5]: inactive; negative
- mutagenic call (Test System: AMES SALMONELLA TYPHIMURIUM, Strain/Indicator: TA1537, Metabolic Activation: RAT, LIVER, S-9, AROCLOR 1254 (30%), Method: PREINCUBATION): inactive; negative

Structure (SMILES): Nc1cccc2cc3ccccc3cc12
- mutagenic call [6]: inactive; negative
- mutagenic call (Test System: AMES SALMONELLA TYPHIMURIUM, Strain/Indicator: TA98, Metabolic Activation: RAT LIVER, CYTOSOL, AROCLOR 1254, Method: STANDARD PLATE): inactive; negative
- mutagenic call (Test System: AMES SALMONELLA TYPHIMURIUM, Strain/Indicator: TA98, Metabolic Activation: RAT LIVER, MICROSOMES, AROCLOR 1254, Method: STANDARD PLATE): active; positive
- mutagenic call (Test System: AMES SALMONELLA TYPHIMURIUM, Strain/Indicator: TA98, Metabolic Activation: RAT, LIVER, S-9, AROCLOR 1254 (2 OR 4%), Method: STANDARD PLATE): active; positive
- mutagenic call (Test System: AMES SALMONELLA TYPHIMURIUM, Strain/Indicator: TA98, Metabolic Activation: RAT, LIVER, S-9, AROCLOR 1254, Method: STANDARD PLATE): active; positive
- mutagenic call (Test System: AMES SALMONELLA TYPHIMURIUM, Strain/Indicator: TA98, Metabolic Activation: RAT, LIVER, S-9, PHENOBARBITAL, Method: STANDARD PLATE): active; positive
- mutagenic call [7]: inactive; negative
- mutagenic call (Test System: AMES SALMONELLA TYPHIMURIUM, Strain/Indicator: TA100, Metabolic Activation: RAT, LIVER, S-9, AROCLOR 1254 (2%), Method: STANDARD PLATE): inactive; negative
- mutagenic call [8]: active; positive
- mutagenic call (Test System: AMES SALMONELLA TYPHIMURIUM, Strain/Indicator: TA100, Metabolic Activation: RAT, LIVER, S-9, PHENOBARBITAL, Method: STANDARD PLATE): active; positive
- mutagenic call (Test System: AMES SALMONELLA TYPHIMURIUM, Strain/Indicator: TA1535, Metabolic Activation: RAT, LIVER, S-9, AROCLOR 1254 (2%), Method: STANDARD PLATE): active; positive
- mutagenic call (Test System: AMES SALMONELLA TYPHIMURIUM, Strain/Indicator: TA1537, Metabolic Activation: RAT, LIVER, S-9, AROCLOR 1254 (2%), Method: STANDARD PLATE): active; positive
- mutagenic call (Test System: MOUSE LYMPHOMA, Strain/Indicator: L5178Y (TK+/TK-), Metabolic Activation: RAT, LIVER, S-9, AROCLOR 1254, Method: SUSPENSION/PLATE): active; positive

Structure (SMILES): CC(=O)OCN(CCCCl)N=O
- mutagenic call (Test System: AMES SALMONELLA TYPHIMURIUM, Strain/Indicator: TA92, Metabolic Activation: NONE, Method: STANDARD PLATE): active; positive
- mutagenic call [9]: active; positive

Structure (SMILES): CCCC(=O)N=c1sn(C(=O)CCC)c2ccc([N+](=O)[O-])cc12
- mutagenic call [10]: active; positive

Structure (SMILES): C[C@@H]1CC2c3cccc4c3c(cn4C3CCCC3)C[C@H]2N(C)C1 (stereo partly drawn)
- mutagenic call [8]: active; positive

Structure (SMILES): CCCCCCCC(=O)N=c1sn(C(=O)CCCCCCC)c2ccc([N+](=O)[O-])cc12
- mutagenic call [10]: active; positive

Structure (SMILES): O=C(O)Cc1ccc(O)c(O)c1
- mutagenic call (Test System: AMES SALMONELLA TYPHIMURIUM, Strain/Indicator: TA92, Metabolic Activation: NONE, Method: PREINCUBATION): inactive; negative
- mutagenic call [1]: inactive; negative
- mutagenic call [3]: inactive; negative
- mutagenic call (Test System: AMES SALMONELLA TYPHIMURIUM, Strain/Indicator: TA102, Metabolic Activation: NONE, Method: PREINCUBATION): active; positive
- mutagenic call (Test System: AMES SALMONELLA TYPHIMURIUM, Strain/Indicator: TA104, Metabolic Activation: NONE, Method: PREINCUBATION): active; positive
- mutagenic call [4]: inactive; negative
- mutagenic call [5]: inactive; negative
- mutagenic call (Test System: CHINESE HAMSTER V-79, Strain/Indicator: V-79/6-THIOGUANINE, Metabolic Activation: NONE, Method: STANDARD PLATE): active; positive

Structure (SMILES): O=[N+]([O-])c1ccccc1CBr
- mutagenic call [2]: inactive; negative
- mutagenic call [3]: inactive; negative
- mutagenic call (Test System: AMES SALMONELLA TYPHIMURIUM, Strain/Indicator: TA100, Metabolic Activation: RAT, LIVER, S-9, AROCLOR 1254, Method: PREINCUBATION): inactive; negative

Structure (SMILES): Cc1ccc(CCC2CO2)cc1 (stereo not drawn)
- mutagenic call [3]: inactive; negative
- mutagenic call [7]: active; positive
- mutagenic call [4]: inactive; negative
- mutagenic call [9]: active; positive

Structure (SMILES): C#Cc1ccc2c3c(cccc13)-c1ccccc1-2
- mutagenic call [6]: active; positive
- mutagenic call (Test System: AMES SALMONELLA TYPHIMURIUM, Strain/Indicator: TA98, Metabolic Activation: RAT, LIVER, S-9, AROCLOR 1254 (2%), Method: STANDARD PLATE): active; positive

— PubChem BioAssay AID1259407 (Chemical Carcinogenesis Research Information System (CCRIS), 2018)
